Measurements published in US11413278B2, “Compounds and methods for promoting stress resistance” (priority 2015, dated 2022).
Read-outs that look alike come from different tables or passages of the source.

Tests used:
C. elegans = C. elegans lifespan assays (liquid and plate); format: in vivo, Caenorhabditis elegans; settings: Caenorhabditis elegans, at 66 uM
NRF2 [1] = assay: qPCR analysis of NRF2-regulated genes; format: cell-based, human; settings: Homo sapiens, 24 h, Assay 12(o), at 10 uM, qPCR
Procedure: (§1) For qPCR analysis, WI-38 cells were treated with small molecules (at 10 μM) (biological quadruplicates) for 24 hrs and processed for RNA isolation and reverse transcription (RT) with the Cells-to-Ct Kit (Life Technologies), following manufacturer's instructions. RT products were diluted with H2O and used for qPCR analysis on an ABI 7300 system (Life Technologies) (technical triplicates). Relative expression levels of target genes were normalized to the genes B2M, PPIA and GAPDH. To knock down the expression of FOXO3 or NRF2, WI-38 cells were transfected, using the RNAiMAX reagents (Life Technologies), with siRNA oligos (at 10 nM final concentration, 10 ml culture medium) for FOXO3 (Life Technologies) or NRF2 (Integrated DNA Technologies) on 10-cm petri dishes for 36 hrs, and then detached and aliquoted onto 96-well (for qPCR analysis) or 384-well plates (for H2O2-stress treatment). ˜24 hrs later, small molecules were introduced and incubated with cells for 24 hrs. Cells were then either processed with the Cells-to-Ct Kit to prepare RT products for qPCR analysis or subjected to H2O2 (700 μM) for 3 hrs and assayed for viability. The knockdown efficiency of FOXO3 or NRF2 was checked at 36 hrs post-transfection and at the end as well.
(§2) For qPCR analysis, WI-38 cells were treated with small molecules (at 10 μM) (biological quadruplicate) for 24 hrs and processed for RNA isolation and reverse transcription (RT) with the Cells-to-Ct Kit (Life Technologies), following manufacturer's instructions. RT products were diluted with H2O and used for qPCR analysis on a LightCycler 480 system (Roche) (technical triplicates). Relative expression levels of target genes were normalized to the genes B2M, PPIA and GAPDH. To knock down the expression of FOXO3 or NRF2, WI-38 cells were transfected with siRNA oligos (at 10 nM final concentration) for FOXO3 (Life Technologies) or NRF2 on 10-cm petri dish for 36 hrs, and then detached and aliquoted onto 96-well plates. ˜24 hrs later, small molecules were introduced and incubated with cells for 24 hrs. Cells were then processed with the Cells-to-Ct Kit to prepare RT products for qPCR analysis. The knockdown efficiency of FOXO3 or NRF2 was checked at 36 hrs post-transfection and at the end as well.
NRF2/SKN-1, the oxidative stress and xenobiotic phase 2 detoxification protein, can extend animal lifespan (Sykiotis and Bohmann, 2008; Tullet et al., 2008). Applicants analyzed these small molecules for their ability to increase the expression of NRF2-regulated genes, including HMOX1 (heme oxygenase (decycling) 1; anti-oxidant), NQO1 (NAD(P)H dehydrogenase, quinone 1; phase 2 detoxification enzyme), GCLC (glutamate-cysteine ligase, catalytic) and GSTM1 (glutathionine S transferase) (Hur and Gray, 2011; Suzuki et al., 2013).

NRF2 [2] = assay: in vitro; format: cell-based, human; settings: 10 uM; YES/NO
Procedure: as §1, §2
Of these, O15 and O20 consistently (in 3 of 3 experiments) required NRF2 to promote H2O2-resistance, and their resistance capacities were reduced by ˜90% on average upon NRF2 knockdown under conditions tested.

FOXO3 = assay: qPCR analysis of FOXO3-regulated genes; format: cell-based, human; settings: Homo sapiens, 24 h, Assay 10(m), at 10 uM, qPCR
Procedure: as §1, §2
Many perturbations that increase lifespan and stress resistance in animals do so in a FOXO-dependent fashion (Kenyon, 2010c). Humans have several FOXO genes, but FOXO3, which promotes stress resistance in mammalian cell culture (Kops et al., 2002; Nemoto and Finkel, 2002; Tran et al., 2003), is the one that has been linked to exceptional longevity in humans (Anselmi et al., 2009; Flachsbart et al., 2009; Li et al., 2009; Pawlikowska et al., 2009; Soerensen et al., 2010; Willcox et al., 2008). FOXO1, in contrast, appears to be responsible for some symptoms of diabetes in mouse models (Cheng and White, 2011). For this reason, applicants have focused on analyzing potential ability of our small molecules to activate FOXO3. […] Another 4 molecules (Gr-7A, Gr-7C, O12 and O23) could induce robust expression (greater than 1.5-fold) of at least 2 FOXO3 target genes.

WI-38 cells [3] = settings: for EC50: read-out: Est. ED50; for Assay 1: H2O2-resistant: YES/NO, if NO, possibly due to repeated freezing/thawing of stocks
WI-38 cells [4] = assay: MMS resistance assay; format: cell-based, human; settings: YES/NO; for Assay 3: MMS-resistant: * indicates partial; for Assay 5: Triple resistant: H2O2, cadmium and MMS
Procedure: (§3) For many stress conditions tested previously, one significant correlation to longevity is the cellular resistance to H2O2 or CdCl2. Applicants then tested these small molecules, at five different final concentrations (0.25 μM to 20 μM), for cadmium and MMS resistance in WI-38 cells.
(§4) The setups on 384-well plates and incubation times were the same as for H2O2 until the time of incubation with the stressors, which was 12 hours for both cadmium and MMS assays. Applicants tested several conditions, including conditions used to assay fibroblasts from long-lived animals (Salmon et al., 2005). These conditions produced better results with the positive controls (KEAP1 and AKT1 siRNAs) in the MMS assay. Thus, for MMS, the cells were shifted from growth media—OptiMEM+10% FBS, to DMEM (Gibco)+2% BSA (no serum) just before adding small molecules, which occurred 24 hours before MMS addition.
(§5) Isolated small molecules were tested for MMS and cadmium resistance twice in two independent assays. Each small molecule was analyzed at five different concentrations (0.25 μM to 20 μM final concentration), with technical triplicates for each dose. Data were analyzed using a global variance t-test.

WI-38 cells [5] = assay: CdCl2 (cadmium) resistance assay; format: cell-based, human; settings: YES/NO; for Assay 2: Cadmium-resistant: * indicates partial
Procedure: as §3, §4, §5

[6] = test system: human dermal fibroblast (HDF) primary cells; assay: H2O2-resistance in primary human dermal fibroblasts; format: cell-based; settings: YES/NO
WI-38 cells [7] = settings: Assay 8(k); without H2O2, at 10 uM
Procedure: WI-38 cells were seeded on 384-well plates for 24 hrs and then incubated with small molecules for 24 hrs. […] Images were collected on an INCell Analyzer 2000 (GE) and analyzed with the Developer software.

mTOR = mTOR inhibition (RPS6 phosphorylation status), In-Cell Western; format: cell-based, human
Procedure: In-Cell Western assays were performed, following a standard immuno-staining protocol. Briefly, WI-38 cells were treated with small molecules for 24 hrs, and then processed and incubated with primary antibody cocktail (Cell Signaling, mouse anti-RPS, 1:25; rabbit-anti-pRPS6-(Ser-235/236), 1:100) overnight at 4° C. Next day, samples were processed and incubated with fluorophore-conjugated secondary antibodies (Cell Signaling, DyLight 680-goat anti-mouse, 1:500; DyLight 800-goat anti-rabbit, 1:1,000). Images were collected on an Odyssey Imager (LI-COR) and analyzed with the Image Studio Lite software (version 5.0.21).
Mammalian target of rapamycin (mTOR) is a crucial regulator of cell growth and metabolism and has been implicated in aging and many diseases, including cancer, diabetes and neurological diseases (Dazert and Hall, 2011; Zoncu et al., 2011). […] In addition, the anti-diabetes drug metformin (Kalender et al., 2010), as well as other AMPK activators such as 2-deoxy-D-glucose (Inoki et al., 2003) and AICAR (Shaw et al., 2004), could inhibit mTORC1. Applicants examined the effects of our molecules (at three doses, 5 μM, 10 μM and 20 μM) on the phosphorylation status of ribosomal protein S6 (RPS6), a readout of mTOR activity, to ask whether they could inhibit mTOR.
In-Cell Western assays were performed, following the same procedures to analyze DNA-damage markers. WI-38 cells were incubated with small molecules for 24 hrs, and then processed and incubated with primary antibody cocktail (mouse anti-RPS, 1:25; rabbit-anti-pRPS6, 1:100) overnight at 4° C. Next day, samples were processed and incubated with fluorophore-conjugated secondary antibodies (goat anti-mouse, 1:500; goat anti-rabbit, 1:1,000) in antibody dilution buffer. Images were collected on an Odyssey Imager (LI-COR) and analyzed with the Image Studio Lite software.

[8] = Assay 2(z), 1.0 × 10^9 bacteria/ml, wild type + FuDR (2012 July), read-out: Lifespan assay in liquid
[9] = Assay 3(aa), 2.5 × 10^9 bacteria/ml, wild type + FuDR, read-out: Lifespan assay in liquid
[10] = Assay 4(ab), 2.0 × 10^10 bacteria/ml, CF512 worms, no FuDR, read-out: Lifespan assay on plates
[11] = read-out: Induction of NRF2-regulated genes: GSTM1 normalized fold-change
[12] = read-out: Induction of NRF2-regulated genes: NQO1 normalized fold-change
[13] = read-out: Induction of FOXO3-regulated genes: GADD45A normalized fold-change
[14] = read-out: Induction of FOXO3-regulated genes: SESN1 normalized fold-change
[15] = read-out: Induction of FOXO3-regulated genes: TXNIP normalized fold-change
[16] = dose response 0.6-20 μM, H2O2-resistance
[17] = read-out: Induction of NRF2-regulated genes: HMOX1 normalized fold-change

Oc1cc(-c2ccccc2)nc2c(-c3ccc(Cl)cc3)c(Cc3ccccc3)nn12 [O26]
ILS at 66 µM (C. elegans; [8]): 23.9%
ILS at 66 µM (C. elegans; [9]): 4.6%
ILS at 66 µM (C. elegans; [10]): 27.1%
ILS at 66 µM (C. elegans; Assay 5(ac), 1.0 × 10^11 bacteria/ml, CF512 worms, no FuDR, read-out: Lifespan assay on plates): 8.3%
fold induction at 10 µM (NRF2 [1]; [11]): 0.85
fold induction at 10 µM (NRF2 [1]; [12]): 0.44
Assay 17: NRF2-dependency for H2O2-resistance (NRF2 [2]): YES
fold induction at 10 µM (FOXO3; [13]): 3.36
fold induction at 10 µM (FOXO3; [14]): 2.21
fold induction at 10 µM (FOXO3; [15]): 1.16
EC50 (WI-38 cells [3]; [16]): 20 µM

Oc1nc2ccccc2n2cccc12 [O4]
Assay 3: MMS-resistant (WI-38 cells [4]): YES
Assay 5: Triple resistant (WI-38 cells [4]): YES
Assay 4: H2O2- & Cd-resistant (WI-38 cells [5]): YES
Assay 2: Cadmium-resistant (WI-38 cells [5]): YES
Assay 17: NRF2-dependency for H2O2-resistance (NRF2 [2]): YES
Assay 6: H2O2-resistant, at 10 uM, human dermal fibroblast (HDF) primary cells [6]: YES
Assay 1: H2O2-resistant (WI-38 cells [3]): YES
EC50 (WI-38 cells [3]): 11.2 µM

Cc1ccc(S(=O)(=O)/C(C#N)=C/c2c(Oc3ccc(Cl)c(C)c3)nc3ccccn3c2=O)cc1 [Gr-5C]
ILS at 66 µM (C. elegans; [8]): 32.6%
ILS at 66 µM (C. elegans; [9]): 1.6%
ILS at 66 µM (C. elegans; [10]): -6.9%
PI cell-death imaging without H2O2 (indicating potential toxicity) (WI-38 cells [7]): YES
fold induction at 10 µM (NRF2 [1]; [17]): 1.67
fold induction at 10 µM (NRF2 [1]; [12]): 1.49
Assay 6: H2O2-resistant, at 10 uM, human dermal fibroblast (HDF) primary cells [6]: YES
EC50 (WI-38 cells [3]; [16]): 15.7 µM

O=C(CC1(O)C(=O)Nc2ccc(Br)cc21)c1ccc(Cl)cc1 (stereo not drawn) [O19]
fold induction at 10 µM (NRF2 [1]; [12]): 1.91
fold induction at 10 µM (FOXO3; [13]): 0.84
Assay 6: H2O2-resistant, at 10 uM, human dermal fibroblast (HDF) primary cells [6]: YES
EC50 (WI-38 cells [3]; [16]): 20 µM

CO[C@H]1C[C@@H]2CC[C@@H](C)[C@@](O)(O2)C(=O)C(=O)N2CCCC[C@H]2C(=O)O[C@H]([C@H](C)C[C@@H]2CC[C@@H](O)[C@H](OC)C2)CC(=O)[C@H](C)/C=C(\C)[C@@H](O)[C@@H](OC)C(=O)[C@H](C)C[C@H](C)/C=C/C=C/C=C/1C [rapamycin, reference compound]
Reduction of ratio of pRPS6/RPS6 by rapamycin (mTOR): ≥ 90%
Reduction of phosphorylated form of RPS6 by rapamycin (normalized) (mTOR; control): 95%

O=C(O)c1cc(Cl)c(Cl)cc1C(=O)Nc1ccccc1 [O25]
Assay 6: H2O2-resistant, at 10 uM, human dermal fibroblast (HDF) primary cells [6]: YES
EC50 (WI-38 cells [3]; [16]): 8.5 µM

Oc1nc(-c2ccccn2)nc2c1Cc1cc(F)ccc1O2 [O24]
ILS at 66 µM (C. elegans; [8]): 13%
ILS at 66 µM (C. elegans; [9]): 2.3%
Assay 3: MMS-resistant (WI-38 cells [4]): YES
Assay 5: Triple resistant (WI-38 cells [4]): YES
Assay 4: H2O2- & Cd-resistant (WI-38 cells [5]): YES
Assay 2: Cadmium-resistant (WI-38 cells [5]): YES
fold induction at 10 µM (NRF2 [1]; read-out: Induction of NRF2-regulated genes: GCLC normalized fold-change): 0.7
fold induction at 10 µM (NRF2 [1]; [11]): 1.24
fold induction at 10 µM (NRF2 [1]; [17]): 9.55
fold induction at 10 µM (NRF2 [1]; [12]): 1.48
fold induction at 10 µM (FOXO3; [14]): 1.93
fold induction at 10 µM (FOXO3; read-out: Induction of FOXO3-regulated genes: SOD2 normalized fold-change): 1.2
fold induction at 10 µM (FOXO3; [15]): 0.61
Assay 6: H2O2-resistant, at 10 uM, human dermal fibroblast (HDF) primary cells [6]: YES
Assay 1: H2O2-resistant (WI-38 cells [3]): YES
EC50 (WI-38 cells [3]; [16]): 7.5 µM
